Experimental data reported in patent US9593149B2, “Amylin and calcitonin receptor agonist” (Novo Nordisk A/S, priority 2014, dated 2017).
pIC50: −log10 of the molar value. ≈ marks a conversion by molar mass, not a printed value. Numbered stars: 1 amine (or outer) side, 2 acyl side, 3 side chain; on linkers, the order of the positions; unused ones are H or OH. Peptide text beside a SMILES is read from it. * marks the point of attachment. C20 diacid = O=C(O)CCCCCCCCCCCCCCCCCCC(=O)*; C18 diacid = O=C(O)CCCCCCCCCCCCCCCCC(=O)*; γGlu = O=C(O)[C@H](CCC(=O)[*:2])N[*:1]

Tests used:
[1] = Assay (IX) pK, T½ in mini-pig; assay type: in vivo, Göttingen mini-pigs; conditions: i.v.
Description: Assay (IX)—pK—Determination of T½ in Mini-Pig
Pharmacokinetic (PK) studies in Göttingen mini-pigs were conducted in order to determine the T½ of the mimylin compound according to the Examples as indicated after i.v. administration.
T½ values of the amylin analogues of the invention is determined by pharmacokinetic studies in female Göttingen mini-pigs from Ellegaard Göttingen Minipigs ApS and the principles of laboratory animal care are followed.
An acclimatisation period of approximately 6-10 days was allowed before the animals entered the study. At start of the acclimatisation period the mini-pigs were about 5 to 12 months old and in the weight range of 15-35 kg. The mini-pigs had two central venous catheters inserted which were used for blood sampling.
The studies were conducted in an animal room which was illuminated to give a cycle of approximately 12 hours light and 12 hours darkness. The animals were housed individually. The animals had free access to domestic quality drinking water during the study, and no food restrictions applied for PK studies. The animals were weighed on arrival and on the days of dosing.
In the present studies the test substances were administered intravenously in approximately 5 nmol/kg dose. The animals received a single intravenous injection in one central venous catheter and blood sampling was performed from the other catheter, where possible. Each test substance was given to typically three but in some cases two or four animals.
A full plasma concentration-time profile, employing 12-16 sampling points, was obtained from each animal. In example blood samples were collected according to the following schedule:
After Intravenous Administration:
Pre-dose (0), 0.5, 1, 2, 4, 6, 8, 12, 24, 48, 72, 96, 120, 168 and 240 hours after injection. In some cases also additional blood samples up to 288 hours post injection were taken.
At each sampling time, 0.5 to 2 ml of blood was drawn from each animal. The blood samples were taken via the central venous catheter.
The 0.8 mL blood samples were collected into EDTA test tubes (8 mM EDTA). Blood samples were kept on ice for max 20 min. before centrifugation. Plasma was separated using centrifugation (i.e. at 4° C., 10 min., 2000G) and was immediately transferred to Micronic tubes on dry ice. Approximately 200 μl plasma was transferred to each Micronic tube. The plasma was stored at −20° C. until assayed. The plasma samples were assayed for the content of compound using LCMS.
The plasma concentration-time profiles were analysed by a non-compartmental pharmacokinetic analysis (NCA) using Phoenix WinNonlin 6.3 (Pharsight Inc., Mountain View, Calif., USA). NCA was performed using the individual plasma concentration-time profiles from each animal. T½ is the terminal half-life=In2/λz and was determined from λz, the first order rate constant associated with the terminal (log-linear) portion of the curve, estimated by linear regression of time vs. log concentration.
MS-Method for Amylin and Mimylin Quantification
40 μl plasma is diluted with 120 μl 66.67% EtOH+1% HCOOH and mixed. Centrifuged for 20 min. at 13000 rpm, 4° C. The supernatant is analyzed by an LC-MS method on a Sciex API 3000 and quantitated with a standard made up in plasma

[2] = Assay (IV) determination of solubility; assay type: physicochemical
Description: Assay (IV)—Determination of Solubility
The mimylin peptide was dissolved in water at ˜500 nmol/ml and mixed 1:1 with a series of buffers (100 mM glycylglycine pH 3.0, 100 mM glycylglycine pH 4.0, 100 mM glycylglycine pH 5.0, 100 mM bistrispropane pH 6.0, 100 mM bistrispropane pH 6.5, 100 mM bistrispropane pH 7.0, 100 mM bistrispropane pH 7.5, 100 mM bistrispropane pH 8.0).

rat calcitonin receptor = molecular target: T1, rat calcitonin receptor (Rattus norvegicus, UniProt P32214); experiment: Assay (VIII) binding to the rat calcitonin receptor; conditions: membranes; read-out: rCT-R binding IC50
T1 construct: expressed in transfected cells; host or cells: BHK tk'ts 13 (transient, FuGENE 6)
T1 sequence (P32214 25-479 isoform P32214-2 limits assumed): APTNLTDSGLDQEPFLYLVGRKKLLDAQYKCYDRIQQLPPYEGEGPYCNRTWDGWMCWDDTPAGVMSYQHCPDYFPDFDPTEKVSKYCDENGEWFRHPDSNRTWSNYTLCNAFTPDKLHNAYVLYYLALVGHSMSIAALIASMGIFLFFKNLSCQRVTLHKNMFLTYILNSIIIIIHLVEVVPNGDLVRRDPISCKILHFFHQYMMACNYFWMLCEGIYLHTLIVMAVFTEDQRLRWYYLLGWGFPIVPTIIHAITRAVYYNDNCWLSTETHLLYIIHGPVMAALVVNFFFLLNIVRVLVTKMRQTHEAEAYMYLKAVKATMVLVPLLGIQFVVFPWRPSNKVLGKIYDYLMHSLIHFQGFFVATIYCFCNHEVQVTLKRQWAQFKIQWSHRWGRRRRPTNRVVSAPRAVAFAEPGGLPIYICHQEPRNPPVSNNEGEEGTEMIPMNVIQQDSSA
Outline: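 Competition binding on membranes from BHK tk'ts 13 cells transiently transfected with rat calcitonin receptor, otherwise run as the human receptor assay. Plates washed in cold HBSS, lysed in 0.1 M NaOH/1% SDS and scintillation-counted. IC50 from one-site competition fit as affinity measure.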

PK mini pig iv T½ [1] | Solubility ([2]; pH 3.0) | Solubility ([2]; pH 4.0) | Solubility ([2]; pH 5.0) | Solubility ([2]; pH 6.0) | Solubility ([2]; pH 6.5) | Solubility ([2]; pH 7.0) | Solubility ([2]; pH 7.5) | Solubility ([2]; pH 8.0) | pIC50 (rat calcitonin receptor) | solubility at 18 h ([2]; pH 5.0) | SMILES
108 h | ≧200 μM | ≧200 μM | ≧200 μM | ≧200 μM | ≧200 μM | ≧200 μM | ≧200 μM | ≧200 μM | – | – | CC(C)C[C@H](NC(=O)[C@H](C)NC(=O)[C@H](C)NC(=O)[C@@H](NC(=O)[C@H](CO)NC(=O)[C@H](CC(C)C)NC(=O)[C@H](CCC(=O)O)NC(=O)[C@H](CO)NC(=O)[C@H](C)NC(=O)[C@H](CCC(=O)O)NC(=O)CCCCCCCCCCCCCCCCCCC(=O)O)[C@@H](C)O)C(=O)NCC(=O)N[C@@H](CCCNC(=N)N)C(=O)N[C@@H](CC(C)C)C(=O)N[C@@H](CO)C(=O)N[C@@H](C)C(=O)N[C@@H](CCC(=O)O)C(=O)N[C@@H](CC(C)C)C(=O)N[C@@H](Cc1cnc[nH]1)C(=O)N[C@@H](CCC(=O)O)C(=O)N[C@@H](CC(C)C)C(=O)N[C@@H](C)C(=O)N[C@H](C(=O)N[C@@H](CC(C)C)C(=O)N1CCC[C@H]1C(=O)N[C@@H](CCCNC(=N)N)C(=O)N[C@H](C(=O)N[C@@H](CCC(=O)O)C(=O)N[C@H](C(=O)NCC(=O)N[C@@H](CO)C(=O)NCC(=O)N[C@@H](CO)C(=O)N1CCC[C@H]1C(N)=O)[C@@H](C)O)[C@@H](C)O)[C@@H](C)O [compound 22, [N-terminal(C20 diacid), 30S, 31G]mimylin] ({C20 diacid}-EASELSTAALGRLSAELHELATLPRTETGSGSP-NH2)
88 h | ≧200 μM | ≧200 μM | ≧200 μM | ≧200 μM | ≧200 μM | ≧200 μM | ≧200 μM | ≧200 μM | 9.69 | – | CC(C)C[C@H](NC(=O)[C@H](C)NC(=O)[C@H](C)NC(=O)[C@@H](NC(=O)[C@H](CO)NC(=O)[C@H](CC(C)C)NC(=O)[C@H](CCC(=O)O)NC(=O)[C@H](CO)NC(=O)[C@H](C)NC(=O)CC[C@H](NC(=O)CCCCCCCCCCCCCCCCCCC(=O)O)C(=O)O)[C@@H](C)O)C(=O)NCC(=O)N[C@@H](CCCNC(=N)N)C(=O)N[C@@H](CC(C)C)C(=O)N[C@@H](CO)C(=O)N[C@@H](C)C(=O)N[C@@H](CCC(=O)O)C(=O)N[C@@H](CC(C)C)C(=O)N[C@@H](Cc1cnc[nH]1)C(=O)N[C@@H](CCC(=O)O)C(=O)N[C@@H](CC(C)C)C(=O)N[C@@H](C)C(=O)N[C@H](C(=O)N[C@@H](Cc1ccc(O)cc1)C(=O)N1CCC[C@H]1C(=O)N[C@@H](CCCNC(=N)N)C(=O)N[C@H](C(=O)N[C@@H](CCC(=O)O)C(=O)N[C@H](C(=O)NCC(=O)N[C@@H](CO)C(=O)NCC(=O)N[C@@H](CO)C(=O)N1CCC[C@H]1C(N)=O)[C@@H](C)O)[C@@H](C)O)[C@@H](C)O [compound 56, [N-terminal(C20 diacid-gGlu), des1, 23Y, 30S, 31G]mimylin] ({C20 diacid-γGlu}-ASELSTAALGRLSAELHELATYPRTETGSGSP-NH2)
32 h | ≧200 μM | ≧200 μM | – | ≧200 μM | ≧200 μM | ≧200 μM | ≧200 μM | ≧200 μM | 10.89 | 149 µM (≈ 569 µg/mL) | CC(C)C[C@H](NC(=O)CNC(=O)[C@H](CO)NC(=O)[C@H](C)NC(=O)CC[C@H](NC(=O)CCCCCCCCCCCCCCCCC(=O)O)C(=O)O)C(=O)N[C@@H](CO)C(=O)N[C@H](C(=O)N[C@@H](C)C(=O)N[C@@H](C)C(=O)N[C@@H](CC(C)C)C(=O)NCC(=O)N[C@@H](CCCNC(=N)N)C(=O)N[C@@H](CC(C)C)C(=O)N[C@@H](CO)C(=O)N[C@@H](CCC(N)=O)C(=O)N[C@@H](CCC(=O)O)C(=O)N[C@@H](CC(C)C)C(=O)N[C@@H](Cc1cnc[nH]1)C(=O)N[C@@H](CCC(=O)O)C(=O)N[C@@H](CC(C)C)C(=O)N[C@@H](CCC(N)=O)C(=O)N[C@H](C(=O)N[C@@H](Cc1ccc(O)cc1)C(=O)N1CCC[C@H]1C(=O)N[C@@H](CCCNC(=N)N)C(=O)N[C@H](C(=O)N[C@@H](CCC(=O)O)C(=O)N[C@H](C(=O)NCC(=O)N[C@@H](CO)C(=O)NCC(=O)N[C@H](C(=O)N[C@@H](Cc1ccc(O)cc1)C(N)=O)[C@@H](C)O)[C@@H](C)O)[C@@H](C)O)[C@@H](C)O)[C@@H](C)O [compound 110, [N-terminal(C18 diacid-gGlu), des1, 4G, 15Q, 21Q, 23Y, 30S, 31G, 32T, 33Y]mimylin] ({C18 diacid-γGlu}-ASGLSTAALGRLSQELHELQTYPRTETGSGTY-NH2)
87 h | ≧200 μM | ≧200 μM | – | ≧200 μM | ≧200 μM | ≧200 μM | ≧200 μM | ≧200 μM | – | 32 µM (≈ 129 µg/mL) | CC(C)C[C@H](NC(=O)[C@H](CCCNC(=N)N)NC(=O)CNC(=O)[C@H](CC(C)C)NC(=O)[C@@H](NC(=O)[C@H](C)NC(=O)[C@@H](NC(=O)[C@H](CO)NC(=O)[C@H](CC(C)C)NC(=O)[C@H](CCC(N)=O)NC(=O)[C@H](CO)NC(=O)[C@H](C)NC(=O)CC[C@H](NC(=O)CCCCCCCCCCCCCCCCCCC(=O)O)C(=O)O)[C@@H](C)O)C(C)C)C(=O)N[C@@H](CO)C(=O)N[C@@H](CCC(N)=O)C(=O)N[C@@H](CCC(=O)O)C(=O)N[C@@H](CC(C)C)C(=O)N[C@@H](Cc1cnc[nH]1)C(=O)N[C@@H](CCC(=O)O)C(=O)N[C@@H](CC(C)C)C(=O)N[C@@H](CCC(N)=O)C(=O)N[C@H](C(=O)N[C@@H](Cc1ccc(O)cc1)C(=O)N1CCC[C@H]1C(=O)N[C@@H](CCCNC(=N)N)C(=O)N[C@H](C(=O)N[C@@H](CCC(=O)O)C(=O)N[C@H](C(=O)NCC(=O)N[C@@H](CO)C(=O)N[C@@H](CCC(N)=O)C(=O)N[C@H](C(=O)N[C@@H](Cc1ccc(O)cc1)C(N)=O)[C@@H](C)O)[C@@H](C)O)[C@@H](C)O)[C@@H](C)O [compound 116, [N-terminal(C20 diacid-gGlu), des1, 4Q, 9V, 15Q, 21Q, 23Y, 30S, 31Q, 32T, 33Y]mimylin] ({C20 diacid-γGlu}-ASQLSTAVLGRLSQELHELQTYPRTETGSQTY-NH2)
